Consider one molecule from patent EP0001174A1, “A peptide and the salts thereof, processes for their preparation and compositions containing them” (NYEGAARD & CO. A/S, priority 1977, dated 1979).

Non-standard residues stand in square brackets, D forms with d. Residues, ends and D or L forms follow the SMILES beside them. pGlu = O=C1CC[C@@H](C(=O)O)N1

This assay in a line: biological activity of the synthetic peptide compared with the biogenic material isolated from urine (test not described; anorexigenic properties stated). To be noted: no method or figures given.

As to `O=C(O)CNC(=O)[C@H](Cc1cnc[nH]1)NC(=O)[C@@H]1CCC(=O)N1` [synthetic peptide, L-(pyro)glutamyl-L-histidyl-glycine] ([pGlu]-His-Gly-OH), the biological activity result is “comparable biological activity”.
